Data reported in PubChem BioAssay AID2060508 (Molecular Pharmacology Branch, DTP, NCI, 2025).

Tested on: 454973-116-R2-J3-PDC spheroids, viability, % test/control
Assay: Anticancer human tumor 454973-116-R2-J3-PDC patient-derived pancreatic carcinoma cell line growth inhibition [GQUAD]
Conditions: curve of first compound; second compound 0.0316 µM; spheroids with HUVEC and MSC
Summary of the method: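 Tumor cells were grown as complex spheroids with HUVEC endothelial cells and mesenchymal stem cells as stroma. G-quadruplex stabilizers were combined with targeted agents over half-log dilutions from near the clinical Cmax, or from 10 microM.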
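Note: spheroids exposed to compounds for seven days.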
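Throughout, for viability, T/C: 100% = DMSO vehicle control viability.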

First: CC1COCCN1c1cc(-c2ccnn2C)c2ccnc(-c3ccn[nH]3)c2n1 (stereo unspecified) + CN(C)c1ccc(Nc2c3ccc(NC(=O)CCN4CCCC4)cc3nc3cc(NC(=O)CCN4CCCC4)ccc23)cc1
Second: CC1COCCN1c1cc(C2(S(C)(=N)=O)CC2)nc(-c2ccnc3[nH]ccc23)n1 (stereo unspecified) + CN(C)c1ccc(Nc2c3ccc(NC(=O)CCN4CCCC4)cc3nc3cc(NC(=O)CCN4CCCC4)ccc23)cc1
The IC50 of the first is 30-fold lower: 0.182 µM for the first, 5.38 µM for the second. The first is the more potent here.

COc1ccc([C@@H](O)c2cc(-c3ncnc4cc(N5CCOCC5)ccc34)c(F)cc2Cl)nn1 + CN(C)c1ccc(Nc2c3ccc(NC(=O)CCN4CCCC4)cc3nc3cc(NC(=O)CCN4CCCC4)ccc23)cc1 gave an IC50 greater than 10 µM.

Same assay, conditions: curve of first compound; second compound 0.1 µM; spheroids with HUVEC and MSC

First: CC1COCCN1c1cc(-c2ccnn2C)c2ccnc(-c3ccn[nH]3)c2n1 (stereo unspecified) + CN(C)c1ccc(Nc2c3ccc(NC(=O)CCN4CCCC4)cc3nc3cc(NC(=O)CCN4CCCC4)ccc23)cc1
Second: CC1COCCN1c1cc(C2(S(C)(=N)=O)CC2)nc(-c2ccnc3[nH]ccc23)n1 (stereo unspecified) + CN(C)c1ccc(Nc2c3ccc(NC(=O)CCN4CCCC4)cc3nc3cc(NC(=O)CCN4CCCC4)ccc23)cc1
The IC50 of the first is 28-fold lower: 0.19 µM for the first, 5.35 µM for the second. The first is the more potent here.

Work on COc1ccc([C@@H](O)c2cc(-c3ncnc4cc(N5CCOCC5)ccc34)c(F)cc2Cl)nn1 + CN(C)c1ccc(Nc2c3ccc(NC(=O)CCN4CCCC4)cc3nc3cc(NC(=O)CCN4CCCC4)ccc23)cc1 yielded an IC50 greater than 10 µM.

Same assay, conditions: curve of first compound; second compound 0.316 µM; spheroids with HUVEC and MSC

First: CC1COCCN1c1cc(-c2ccnn2C)c2ccnc(-c3ccn[nH]3)c2n1 (stereo unspecified) + CN(C)c1ccc(Nc2c3ccc(NC(=O)CCN4CCCC4)cc3nc3cc(NC(=O)CCN4CCCC4)ccc23)cc1
Second: CC1COCCN1c1cc(C2(S(C)(=N)=O)CC2)nc(-c2ccnc3[nH]ccc23)n1 (stereo unspecified) + CN(C)c1ccc(Nc2c3ccc(NC(=O)CCN4CCCC4)cc3nc3cc(NC(=O)CCN4CCCC4)ccc23)cc1
The IC50 of the first is 31-fold lower: 0.19 µM for the first, 5.98 µM for the second. The first is the more potent here.

For COc1ccc([C@@H](O)c2cc(-c3ncnc4cc(N5CCOCC5)ccc34)c(F)cc2Cl)nn1 + CN(C)c1ccc(Nc2c3ccc(NC(=O)CCN4CCCC4)cc3nc3cc(NC(=O)CCN4CCCC4)ccc23)cc1, the IC50 was 9.2 µM.

Same assay, conditions: curve of first compound; second compound 1 µM; spheroids with HUVEC and MSC

First: CC1COCCN1c1cc(-c2ccnn2C)c2ccnc(-c3ccn[nH]3)c2n1 (stereo unspecified) + CN(C)c1ccc(Nc2c3ccc(NC(=O)CCN4CCCC4)cc3nc3cc(NC(=O)CCN4CCCC4)ccc23)cc1
Second: CC1COCCN1c1cc(C2(S(C)(=N)=O)CC2)nc(-c2ccnc3[nH]ccc23)n1 (stereo unspecified) + CN(C)c1ccc(Nc2c3ccc(NC(=O)CCN4CCCC4)cc3nc3cc(NC(=O)CCN4CCCC4)ccc23)cc1
The IC50 of the first is 30-fold lower: 0.171 µM for the first, 5.14 µM for the second. The first is the more potent here.

COc1ccc([C@@H](O)c2cc(-c3ncnc4cc(N5CCOCC5)ccc34)c(F)cc2Cl)nn1 + CN(C)c1ccc(Nc2c3ccc(NC(=O)CCN4CCCC4)cc3nc3cc(NC(=O)CCN4CCCC4)ccc23)cc1 gave an IC50 of 6.56 µM.

Same assay, conditions: curve of first compound; second compound 3.16 µM; spheroids with HUVEC and MSC

Going from CC1COCCN1c1cc(-c2ccnn2C)c2ccnc(-c3ccn[nH]3)c2n1 (stereo unspecified) + CN(C)c1ccc(Nc2c3ccc(NC(=O)CCN4CCCC4)cc3nc3cc(NC(=O)CCN4CCCC4)ccc23)cc1 to CC1COCCN1c1cc(C2(S(C)(=N)=O)CC2)nc(-c2ccnc3[nH]ccc23)n1 (stereo unspecified) + CN(C)c1ccc(Nc2c3ccc(NC(=O)CCN4CCCC4)cc3nc3cc(NC(=O)CCN4CCCC4)ccc23)cc1, the IC50 rises from 0.141 µM to 6.07 µM (43-fold). The first is the more potent here.

Compound COc1ccc([C@@H](O)c2cc(-c3ncnc4cc(N5CCOCC5)ccc34)c(F)cc2Cl)nn1 + CN(C)c1ccc(Nc2c3ccc(NC(=O)CCN4CCCC4)cc3nc3cc(NC(=O)CCN4CCCC4)ccc23)cc1 has an IC50 of 5.39 µM.

Same assay, conditions: curve of first compound; second compound 10 µM; spheroids with HUVEC and MSC

Going from CC1COCCN1c1cc(-c2ccnn2C)c2ccnc(-c3ccn[nH]3)c2n1 (stereo unspecified) + CN(C)c1ccc(Nc2c3ccc(NC(=O)CCN4CCCC4)cc3nc3cc(NC(=O)CCN4CCCC4)ccc23)cc1 to CC1COCCN1c1cc(C2(S(C)(=N)=O)CC2)nc(-c2ccnc3[nH]ccc23)n1 (stereo unspecified) + CN(C)c1ccc(Nc2c3ccc(NC(=O)CCN4CCCC4)cc3nc3cc(NC(=O)CCN4CCCC4)ccc23)cc1, the IC50 rises from 0.079 µM to 5.84 µM (74-fold).

COc1ccc([C@@H](O)c2cc(-c3ncnc4cc(N5CCOCC5)ccc34)c(F)cc2Cl)nn1 + CN(C)c1ccc(Nc2c3ccc(NC(=O)CCN4CCCC4)cc3nc3cc(NC(=O)CCN4CCCC4)ccc23)cc1 gave an IC50 of 2.89 µM.

Same assay, conditions: second compound 0.0316 µM; first compound 0.0316 µM; stronger effect = lower value; spheroids with HUVEC and MSC

Compared with CC1COCCN1c1cc(-c2ccnn2C)c2ccnc(-c3ccn[nH]3)c2n1 (stereo unspecified) + CN(C)c1ccc(Nc2c3ccc(NC(=O)CCN4CCCC4)cc3nc3cc(NC(=O)CCN4CCCC4)ccc23)cc1, CC1COCCN1c1cc(C2(S(C)(=N)=O)CC2)nc(-c2ccnc3[nH]ccc23)n1 (stereo unspecified) + CN(C)c1ccc(Nc2c3ccc(NC(=O)CCN4CCCC4)cc3nc3cc(NC(=O)CCN4CCCC4)ccc23)cc1 is higher in viability, T/C: 97.9% for the first, 110% for the second.

Work on COc1ccc([C@@H](O)c2cc(-c3ncnc4cc(N5CCOCC5)ccc34)c(F)cc2Cl)nn1 + CN(C)c1ccc(Nc2c3ccc(NC(=O)CCN4CCCC4)cc3nc3cc(NC(=O)CCN4CCCC4)ccc23)cc1 yielded a viability, T/C of 101%.

Same assay, conditions: second compound 0.0316 µM; first compound 0.1 µM; stronger effect = lower value; spheroids with HUVEC and MSC

Compared with CC1COCCN1c1cc(-c2ccnn2C)c2ccnc(-c3ccn[nH]3)c2n1 (stereo unspecified) + CN(C)c1ccc(Nc2c3ccc(NC(=O)CCN4CCCC4)cc3nc3cc(NC(=O)CCN4CCCC4)ccc23)cc1, CC1COCCN1c1cc(C2(S(C)(=N)=O)CC2)nc(-c2ccnc3[nH]ccc23)n1 (stereo unspecified) + CN(C)c1ccc(Nc2c3ccc(NC(=O)CCN4CCCC4)cc3nc3cc(NC(=O)CCN4CCCC4)ccc23)cc1 is higher in viability, T/C: 66.8% for the first, 105% for the second.

COc1ccc([C@@H](O)c2cc(-c3ncnc4cc(N5CCOCC5)ccc34)c(F)cc2Cl)nn1 + CN(C)c1ccc(Nc2c3ccc(NC(=O)CCN4CCCC4)cc3nc3cc(NC(=O)CCN4CCCC4)ccc23)cc1 showed a viability, T/C of 94.6%.

Same assay, conditions: second compound 0.0316 µM; first compound 0.316 µM; stronger effect = lower value; spheroids with HUVEC and MSC

Going from CC1COCCN1c1cc(-c2ccnn2C)c2ccnc(-c3ccn[nH]3)c2n1 (stereo unspecified) + CN(C)c1ccc(Nc2c3ccc(NC(=O)CCN4CCCC4)cc3nc3cc(NC(=O)CCN4CCCC4)ccc23)cc1 to CC1COCCN1c1cc(C2(S(C)(=N)=O)CC2)nc(-c2ccnc3[nH]ccc23)n1 (stereo unspecified) + CN(C)c1ccc(Nc2c3ccc(NC(=O)CCN4CCCC4)cc3nc3cc(NC(=O)CCN4CCCC4)ccc23)cc1, the viability, T/C rises from 35.2% to 105%.

COc1ccc([C@@H](O)c2cc(-c3ncnc4cc(N5CCOCC5)ccc34)c(F)cc2Cl)nn1 + CN(C)c1ccc(Nc2c3ccc(NC(=O)CCN4CCCC4)cc3nc3cc(NC(=O)CCN4CCCC4)ccc23)cc1 gave a viability, T/C of 96.3%.

Same assay, conditions: second compound 0.0316 µM; first compound 1 µM; stronger effect = lower value; spheroids with HUVEC and MSC

Compared with CC1COCCN1c1cc(-c2ccnn2C)c2ccnc(-c3ccn[nH]3)c2n1 (stereo unspecified) + CN(C)c1ccc(Nc2c3ccc(NC(=O)CCN4CCCC4)cc3nc3cc(NC(=O)CCN4CCCC4)ccc23)cc1, CC1COCCN1c1cc(C2(S(C)(=N)=O)CC2)nc(-c2ccnc3[nH]ccc23)n1 (stereo unspecified) + CN(C)c1ccc(Nc2c3ccc(NC(=O)CCN4CCCC4)cc3nc3cc(NC(=O)CCN4CCCC4)ccc23)cc1 is higher in viability, T/C: 23% for the first, 102% for the second.

For COc1ccc([C@@H](O)c2cc(-c3ncnc4cc(N5CCOCC5)ccc34)c(F)cc2Cl)nn1 + CN(C)c1ccc(Nc2c3ccc(NC(=O)CCN4CCCC4)cc3nc3cc(NC(=O)CCN4CCCC4)ccc23)cc1, the viability, T/C was 82.8%.

Same assay, conditions: second compound 0.0316 µM; first compound 3.16 µM; stronger effect = lower value; spheroids with HUVEC and MSC

With CC1COCCN1c1cc(-c2ccnn2C)c2ccnc(-c3ccn[nH]3)c2n1 (stereo unspecified) + CN(C)c1ccc(Nc2c3ccc(NC(=O)CCN4CCCC4)cc3nc3cc(NC(=O)CCN4CCCC4)ccc23)cc1 the viability, T/C was 24%.
